The subject of data set [1] is HDAC6 and HDAC1. Set-up: method as in PMID 22262760. Particulars: cited from earlier work.
Details of data set [2]: method as in PMID 27646843. Particulars: cited from earlier work.
Data set [3] deals with NZB/W F1 female mice. As to the kind of experiment: Murine SLE model: survival, severe proteinuria, UP/C. To be noted: methylprednisolone 5 mg/kg/day i.p. It is filed as in vivo, mouse. The protocol: (§1) Survival had been monitored until 42 weeks of age.
During the experiments, urine protein levels had been measured every 2 weeks. Fresh urine was collected by performing abdominal massages. Urine protein was measured with the Coomassie Brilliant Blue method as described in our previous study. Urine creatinine was measured using a DRI-CHEM 3000 Colorimetric analyzer (Fujifilm, Tokyo, Japan) with the urine diluted in deionized water (1:100 dilution).

For data set [4], the system named is NZB/W F1 female mice. As to the kind of experiment: Murine SLE model: BUN and anti-dsDNA antibody levels. In kind it is in vivo, mouse. Particulars: methylprednisolone 5 mg/kg/day. The procedure: as §1
Blood samples had been collected from mice under isoflurane anesthesia every 4 weeks (at 24, 28, 32, 36, 40 weeks of age and autopsy), and the obtained serum samples had been kept at −70 °C until the analysis.

Data set [5] deals with NZB/W F1 female mice. Description: Murine SLE model: kidney histopathology (H&E, PAS, Masson trichrome). In kind it is in vivo, mouse. Particulars: methylprednisolone 5 mg/kg/day.
Text: as §1
Kidneys were harvested from mice at the end of the study (at 43–44 weeks of age). For light microscopy, the tissues were fixed in 10% neutral buffered formalin, embedded in paraffin wax, sectioned at a thickness of 5 μm and stained with H&E (BBC Biochemical, Mount Vernon, WA, USA). Periodic acid/Schiff (PAS stain kit, BBC Biochemical) staining and Masson trichrome (BBC Biochemical) staining were used for the detection of […] and fibrosis, respectively. Inflammatory cell infiltration and mesangial proliferation were scored on a 4-point scale as 0 (none), 1+ (mild), 2+ (moderate), 3+ (moderate to severe) and 4+ (severe).

The test system of data set [6] is NZB/W F1 female mice. Description: Murine SLE model: flow cytometry of splenocytes. It is filed as in vivo, mouse. To be noted: methylprednisolone 5 mg/kg/day. An excerpt:
Single cell suspensions were obtained from the spleens of NZB/W F1 mice at autopsy (at 43–44 weeks of age). The splenocytes were stained with PerCP-Cy5.5-conjugated anti-mouse CD3e (PerCP-cy5.5-CD3e, eBioscience, San Diego, CA, USA), fluorescein isothiocyanate (FITC)-conjugated anti-mouse CD4 (FITC-CD4, BD Biosciences, San Jose, CA, USA), PE-cyanine7-conjugated anti-mouse CD8a (eBioscience), allo-phycocyanin (APC)-conjugated anti-mouse CD25 (BD Biosciences) and PE-conjugated anti-mouse CD138 (BD Biosciences).
T cell profile was analyzed as described previously; briefly, we examined proportions of Th1 cells (CD4^+CD25^+T-bet^+), Th2 cells (CD4^+CD25^+GATA-3^+), Th17 cells (CD4^+CD25^+ROR-γt^+), and Treg cells (CD4^+CD25^+Foxp3^+). To analyze T helper subsets, the splenocytes were stained with antibodies to CD4 and CD25 (FITC-conjugated anti-mouse CD4 and APC-conjugated anti-mouse CD25, BD Biosciences). Cells were fixed and permeabilized prior to staining with T-bet, GATA-3, ROR-γt and Foxp3 antibodies (PE-, BD Biosciences).
(A flow cytometer gives signals particle by particle.)

The subject of data set [7] is NZB/W F1 female mice. Description: Murine SLE model: serum cytokine levels (Milliplex). It is filed as in vivo, mouse. The protocol:
Serum samples were assayed using Milliplex® MAP Kits (Millipore) for granulocyte macrophage-colony stimulating factor (GM-CSF), interferon-γ (IFN-γ), interleukin-1α (IL-1α), IL-1β, IL-10, IL-12(p70), IL-15, IL-17a, IL-2, IL-4, IL-6, tumor necrosis factor α (TNF-α), transforming growth factor beta 1 (TGF-β1), IL-22, IL-23, IFN-inducible protein 10 (IP-10 (CXCL10)) and chemokine (C-C motif) ligand 2 (CCL2 (MCP-1)).

Data set [8] has as its system NZB/W F1 female mice. Description: Murine SLE model: cytokine levels in kidney extracts. Particulars: group P: methylprednisolone 5 mg/kg/day; at autopsy; mean ± SD; n = 13. In kind it is in vivo, mouse. The procedure:
The kidneys were weighed and then transferred into dPBS (Welgene) supplemented with anti-protease Complete TM cocktail (Boehringer) using 12.5 μl of dPBS per milligram of wet weight tissue. Samples were homogenized twice using an Automill TK-AM5 freeze-crushing cell homogenizer (W 280 mm × D 390 mm × H 290 mm, Tokken Inc., Chiba, Japan) at 1,400 rpm for 90 seconds and then centrifuged at 16,000 × g for 15 min at 4 °C. The supernatants were collected and total protein concentrations were determined in the kidney extracts using a bicinchoninic acid (BCA) protein assay kit™ (Pierce). Total protein concentrations of the kidney extracts were adjusted to 2 mg/dl and used for the analysis of IFN-γ, IL-10, IL-15, IL-17, IL-1β, IL-4, IL-6, IP-10, MCP-1, CCL4, RANTES, TNF-α and sCD40L with Milliplex® MAP Kits (Millipore).

The test system of data set [9] is NZB/W F1 female mice. As to the kind of experiment: Murine SLE model: serum chemistry and necropsy. Particulars: group P: methylprednisolone 5 mg/kg/day; serum at autopsy; mean ± SD.
Protocol: Control mice received 150 μL of vehicle (Ethanol: Kolliphor® EL: saline = 1:1:8) and were subjected to the same schedule. Survival rate and incidence of severe proteinuria (percent individual mice with urine protein ≥300 mg/dL) were calculated. Survival had been monitored until 42 weeks of age.
The mark [10] stands for this setting: group P: methylprednisolone 5 mg/kg/day, at autopsy, mean ± SD, n = 13.

The source of these data is article PMC6251916, “CKD-506, a novel HDAC6-selective inhibitor, improves renal outcomes and survival in a mouse model of systemic lupus erythematosus” (Scientific Reports, 2018).

Turning to `O=C(CCCCCCNC(=O)c1cnc(N(c2ccccc2)c2ccccc2)nc1)NO` [ACY-1215], in [1], the “selectivity for HDAC6 and HDAC1 at IC50” value was 11 fold. Also, in [2], the “significant adverse effects reported in clinical trials” value is “grade 3 anemia and neutropenia”.

For the compound `C[C@H]1C[C@@H]2[C@H]([C@@H](O)C[C@@]3(C)[C@H]2CC[C@]3(O)C(=O)CO)[C@@]2(C)C=CC(=O)C=C12` [methylprednisolone, reference compound], the “Survival rate at the end of the study” value in data set [3] (42-weeks of age) is on record as 93.3%. Besides, the “incidence of severe proteinuria (urine protein >300 mg/dl)” value in [3] (42 weeks of age) is recorded as 20%. Besides, the “Levels of BUN vs vehicle” value in [4] (36 weeks of age) is “significantly lower”. Besides, the “Levels of BUN vs vehicle” value in data set [4] (at autopsy) was “significantly lower”. In addition, the “Degree of inflammatory cell infiltration in kidneys vs vehicle” value in [5] is “significantly lower”. In [6], the “ratio of CD4+CD8−/CD4−CD8+ T cells in spleen vs vehicle” value is “significantly lower”. Besides, in [6] (spleen), the “fewer CD4−CD8− cells compared with group vehicle” value was found to be 4.3% and the “fewer CD138+ cells compared with group vehicle” value worked out at 16.3%. For the same compound, in data set [7] (setting [10]), the “Serum IFN-γ” value turned out to be 0.07 ± 0.24 pg/mL, the “Serum IL-1α” value was determined as 666.21 ± 527.20 pg/mL, the “Serum IL-1β” value is 0.65 ± 2.34 pg/mL and the “Serum IL-2” value was found to be 0.09 ± 0.34 pg/mL. In data set [7] (setting [10]), the “Serum IL-4” value came out at 1.49 ± 0.20 pg/mL, the “Serum IL-6” value came out at 3.36 ± 3.30 pg/mL, the “Serum IL-10” value stood at 18.41 ± 12.97 pg/mL and the “Serum IL-12(70)” value turned out to be 1.04 ± 3.76 pg/mL. Also, in data set [7] (setting [10]), the “Serum IL-15” value worked out at 45.25 ± 14.91 pg/mL, the “Serum IL-17” value amounted to 3.59 ± 1.73 pg/mL, the “Serum IL-22” value is 17.68 ± 16.19 pg/mL and the “Serum IL-23” value is 22.31 ± 61.77 pg/mL. Also, in data set [7] (setting [10]), the “Serum TGF-β1” value came out at 66067.78 ± 18777.09 pg/mL and the “Serum TNF-α” value is 1.57 ± 2.07 pg/mL. In data set [7] (methylprednisolone 5 mg/kg/day, 36 weeks of age, difference not statistically significant), the “Mean serum levels of CCL2 vs vehicle” value is listed as “lower”. In data set [8], the “Kidney extract CCL2” value worked out at 19.91 ± 11.71 pg/mL, the “Kidney extract CCL4” value amounted to 0.60 ± 1.84 pg/mL, the “Kidney extract IFN-γ” value amounted to 16.91 ± 5.10 pg/mL and the “Kidney extract IL-1β” value turned out to be 4.80 ± 2.85 pg/mL. Also, in data set [8], the “Kidney extract IL-4” value worked out at 0.06 ± 0.08 pg/mL, the “Kidney extract IL-6” value is 2.95 ± 0.59 pg/mL, the “Kidney extract IL-10” value is 12.14 ± 2.02 pg/mL and the “Kidney extract IL-15” value was 40.90 ± 9.01 pg/mL. Also, in data set [8], the “Kidney extract IP-10” value is 50.64 ± 15.63 pg/mL, the “Kidney extract RANTES” value was determined as 9.77 ± 15.22 pg/mL and the “Kidney extract TNF-α” value stood at 0.07 ± 0.24 pg/mL. The compound further displayed a Ca in data set [9] of 9.35 ± 0.53 mg/dL.
